Laboratory results: ChEMBL document CHEMBL1146455, “New geranyl stilbenes from Dalea purpurea with in vitro opioid receptor affinity” (J Nat Prod, 2004)

Test: Displacement of [3H]naloxone from opioid receptor in Sprague-Dawley rat striatal membrane by scintillation spectrophotometry
Parameters: species or system Striatum

Ki [µM]	SMILES
> 100	CC(C)=CCc1cc(O)c(O)c(CC=C(C)C)c1[C@H]1Oc2c(CC=C(C)C)c(O)cc(O)c2C(=O)[C@@H]1O [PETALOSTEMUMOL]
4.2	CC(C)=CCC/C(C)=C/Cc1c(O)cc(/C=C/c2ccc(O)c(O)c2)cc1O [PAWHUSKIN C]
0.29	CC(C)=CCC/C(C)=C/Cc1c(O)cc(O)cc1/C=C/c1ccc(O)c(O)c1CC=C(C)C [PAWHUSKIN A]
11.4	CC(C)=CCCC1(C)C=Cc2c(O)cc(/C=C/c3ccc(O)c(O)c3)cc2O1 (centres undefined) [PAWHUSKIN B]
